{
  "source": "patent US20120128670A1",
  "about": "“mTOR INHIBITOR AND ANGIOGENESIS INHIBITOR COMBINATION THERAPY” (OSI PHARMACEUTICALS, LLC, priority 2009, published 2012)",
  "key": {"[1]": {"test_system": "SKOV3 ovarian carcinoma xenografts", "experiment": "Study No. 5: tumor growth inhibition in SKOV3 ovarian carcinoma xenografts", "conditions": "single agent", "experimental": "With respect to study No. 5, female athymic nude nu/nu mice (11-12 wks, 20-27 g, Harlan) were allowed to acclimate for a minimum of one week prior to initiation of the study. To evaluate tumor growth inhibition, SKOV3 tumor fragments were implanted s.c. in the right flank of nude mice. Tumors were established to mean tumor volume per treatment group of 84.6 mm^3-85.3 mm^3 of 8 mice each.\n(§1) Body weights were determined twice weekly along with tumor volume (V=[length×(width)]/2) measurements using Vernier calipers. Tumor growth inhibition was determined at different time points by the following formula:\n(§2) where Tt=median tumor volume of treated at time t; T0=median tumor volume of treated at time 0; Ct=median tumor volume of control at time t; and C0=median tumor volume of control at time 0. The average TGI over the dosing period was then calculated and reported.\n(§3) Tumor regressions were determined and calculated as follows using the formula: % Regression=100(T0−Ti)/T0; where T0 is the mean tumor volume for treated group at the initiation of treatment and Ti is the mean tumor volume for that group at time x."}, "[2]": {"test_system": "DU145 prostate carcinoma xenografts", "conditions": "for % Reg. / Avg. TGI / Morbidity (Mortality): DU145 xenografts", "experimental": "(§4) With respect to study Nos. 1 and 2, male athymic nude nu/nu mice (6-8 wks, 25-32 g, Harlan) were allowed to acclimate for a minimum of one week prior to initiation of the study. To evaluate tumor growth inhibition, DU145 tumor fragments were implanted s.c. in the right flank of nude mice. Tumors were established to 200±50 mm^3 in size before randomization into treatment groups of 8 mice each.\n(§5) All of the Tumor Growth Inhibition (TGI) studies were performed using 20% Trappsol as the vehicle with once-daily oral administration of OSI-027 for 14 or 28 consecutive days. Body weights were determined twice weekly along with tumor volume (V=[length×(width)]/2) measurements using Vernier calipers. Tumor growth inhibition was determined at different time points by the following formula:\nas §2, §3"}, "[3]": {"test_system": "DU145 prostate carcinoma xenografts", "experiment": "Study No. 2: tumor growth inhibition in DU145 prostate carcinoma xenografts, extended dosing for 28 days", "format": "in vivo", "experimental": "as §4, §1, §2, §3"}, "[4]": {"test_system": "OVCAR-5 ovarian carcinoma xenografts", "experiment": "Study No. 4: tumor growth inhibition in OVCAR-5 ovarian carcinoma xenografts", "conditions": "OVCAR-5 xenografts, 14 days, single agent", "text": "(§6) Regarding study Nos. 3 and 4, female athymic nude nu/nu CD-1 mice (6-8 wks, 20-29 g, Charles River Laboratories, Wilmington, Mass., USA) were allowed to acclimate for a minimum of one week prior to initiation of the study. To evaluate tumor growth inhibition, cells were harvested from cell culture flasks during exponential cell growth, washed twice with sterile PBS, counted and resuspended in PBS to a suitable concentration before s.c. implantation on the right flank of nu/nu CD-1 mice. Tumors were established to 200±50 mm^3 in size before randomization into treatment groups of 8 mice each.\nas §5, §2, §3"}, "[5]": {"test_system": "H292 lung carcinoma xenografts", "experiment": "Study No. 3: tumor growth inhibition in H292 lung carcinoma xenografts", "conditions": "21 days, single agent", "text": "as §6, §5, §2, §3"}, "[6]": {"conditions": "Avastin 4 mg/kg q4d (table; text 5 mg/kg q4d×4)"}, "[7]": {"conditions": "Avastin 4 mg/kg q4d (table; text 5 mg/kg q4d×4), listed as Bevacizumab"}, "[8]": {"conditions": "Avastin 4 mg/kg q4d×4, single agent"}, "[9]": {"conditions": "Avastin 4 mg/kg q4d×8, single agent"}, "[10]": {"conditions": "OSI-027 50 mg/kg qd oral, 14 days"}, "[11]": {"conditions": "OSI-027 50 mg/kg qd oral, 14 days, 50 mg/kg"}, "[12]": {"conditions": "OSI-027 50 mg/kg qd oral, 50 mg/kg"}, "[13]": {"conditions": "OSI-027 50 mg/kg qd oral, 14 days, single agent"}, "[14]": {"conditions": "OSI-027 50 mg/kg qd oral, 28 days, single agent"}, "[15]": {"conditions": "OSI-027 65 mg/kg qd oral, 28 days, single agent"}, "[16]": {"conditions": "Sutent 40 mg/kg qd, listed as Sunitinib"}},
  "note": "Read-outs that look alike come from different tables or passages of the source.",
  "data": [
    {"compound": "bevacizumab [Avastin, reference compound]", "values": [
      {"measurement": "% Reg.", "setting": "[1]; [6]", "value": 0, "unit": "%"},
      {"measurement": "Avg. TGI", "setting": "[1]; [6]", "value": 67, "unit": "%"},
      {"measurement": "Morbidity (Mortality)", "setting": "[1]; [6]", "value": "0/8"},
      {"measurement": "% Reg.", "setting": "[1]; [7]", "value": 0, "unit": "%"},
      {"measurement": "Avg. TGI", "setting": "[1]; [7]", "value": 67, "unit": "%"},
      {"measurement": "% Reg.", "setting": "[2]; [8]", "value": 0, "unit": "%"},
      {"measurement": "Avg. TGI", "setting": "[2]; [8]", "value": 16, "unit": "%"},
      {"measurement": "Morbidity (Mortality)", "setting": "[2]; [8]", "value": "0/8"},
      {"measurement": "Avg. TGI", "setting": "[2]; Avastin 4 mg/kg q4d×4, single agent, listed as Bevacizumab", "value": 16, "unit": "%"},
      {"measurement": "% Reg.", "setting": "[3]; [9]", "value": 0, "unit": "%"},
      {"measurement": "Avg. TGI", "setting": "[3]; [9]", "value": 32, "unit": "%"},
      {"measurement": "Morbidity (Mortality)", "setting": "[3]; [9]", "value": "0/8"},
      {"measurement": "Avg. TGI", "setting": "[3]; Avastin 4 mg/kg q4d×8, single agent, listed as Bevacizumab", "value": 32, "unit": "%"}
    ]},
    {"compound": "COc1cccc2cc(-c3nc([C@H]4CC[C@H](C(=O)O)CC4)n4ncnc(N)c34)[nH]c12", "note": "[OSI-027, (1R,4R)-4-(4-amino-5-(7-methoxy-1H-indol-2-yl)imidazo[1,5-f][1,2,4]triazin-7-yl)cyclohexanecarboxylic acid]", "values": [
      {"measurement": "BWL", "setting": "[1]; [10]", "value": 2, "unit": "%"},
      {"measurement": "Morbidity (Mortality)", "setting": "[1]; [10]", "value": "0/8"},
      {"measurement": "% Reg.", "setting": "[1]; [11]", "value": 4, "unit": "%"},
      {"measurement": "Avg. TGI", "setting": "[1]; [11]", "value": 86, "unit": "%"},
      {"measurement": "BWL", "setting": "[4]; OSI-027 50 mg/kg qd oral", "value": 0, "unit": "%"},
      {"measurement": "Morbidity (Mortality)", "setting": "[4]; OSI-027 50 mg/kg qd oral", "value": "0/8"},
      {"measurement": "% Reg.", "setting": "[4]; [12]", "value": 6, "unit": "%"},
      {"measurement": "Avg. TGI", "setting": "[4]; [12]", "value": 78, "unit": "%"},
      {"measurement": "% Reg.", "setting": "[2]; [13]", "value": 0, "unit": "%"},
      {"measurement": "Morbidity (Mortality)", "setting": "[2]; [13]", "value": "0/8"},
      {"measurement": "Avg. TGI", "setting": "[2]; OSI-027 50 mg/kg qd oral, 14 days, single agent, 50 mg/kg", "value": 21, "unit": "%"},
      {"measurement": "BWL", "setting": "[2]; mouse, in vivo, po, 50 mg/kg", "value": 6, "unit": "%"},
      {"measurement": "% Reg.", "setting": "[3]; [14]", "value": 0, "unit": "%"},
      {"measurement": "BWL", "setting": "[3]; [14]", "value": 14, "unit": "%"},
      {"measurement": "Morbidity (Mortality)", "setting": "[3]; [14]", "value": "0/8"},
      {"measurement": "Avg. TGI", "setting": "[3]; OSI-027 50 mg/kg qd oral, 28 days, single agent, 50 mg/kg", "value": 40, "unit": "%"},
      {"measurement": "% Reg.", "setting": "[3]; [15]", "value": 0, "unit": "%"},
      {"measurement": "BWL", "setting": "[3]; [15]", "value": 17, "unit": "%"},
      {"measurement": "Morbidity (Mortality)", "setting": "[3]; [15]", "value": "0/8"},
      {"measurement": "Avg. TGI", "setting": "[3]; OSI-027 65 mg/kg qd oral, 28 days, single agent, 65 mg/kg", "value": 58, "unit": "%"},
      {"measurement": "BWL", "setting": "[5]; OSI-027 50 mg/kg qd oral", "value": 0, "unit": "%"},
      {"measurement": "Morbidity (Mortality)", "setting": "[5]; OSI-027 50 mg/kg qd oral", "value": "0/8"},
      {"measurement": "% Reg.", "setting": "[5]; [12]", "value": 8, "unit": "%"},
      {"measurement": "Avg. TGI", "setting": "[5]; [12]", "value": 83, "unit": "%"}
    ]},
    {"compound": "CCN(CC)CCNC(=O)c1c(C)[nH]c(/C=C2\\C(=O)Nc3ccc(F)cc32)c1C", "note": "[Sutent, sunitinib, reference compound]", "values": [
      {"measurement": "% Reg.", "setting": "[4]; Sutent 40 mg/kg qd", "value": 0, "unit": "%"},
      {"measurement": "Avg. TGI", "setting": "[4]; Sutent 40 mg/kg qd", "value": 71, "unit": "%"},
      {"measurement": "Morbidity (Mortality)", "setting": "[4]; Sutent 40 mg/kg qd", "value": "0/8"},
      {"measurement": "Avg. TGI", "setting": "[4]; [16]", "value": 71, "unit": "%"},
      {"measurement": "% Reg.", "setting": "[5]; Sutent 40 mg/kg qd", "value": 0, "unit": "%"},
      {"measurement": "Avg. TGI", "setting": "[5]; Sutent 40 mg/kg qd", "value": 55, "unit": "%"},
      {"measurement": "Morbidity (Mortality)", "setting": "[5]; Sutent 40 mg/kg qd", "value": "0/8"},
      {"measurement": "Avg. TGI", "setting": "[5]; [16]", "value": 55, "unit": "%"}
    ]}
  ]
}
